Laboratory results published in paper PMC9753424 (2022).

Tests used:
Assay in all cases: bio-layer interferometry
[1] = test system: MYC-G4 (DNA, G4) TGAGGGTGGGTAGGGTGGGTAA; conditions: PBS (ion concentrations not given), 0.5% DMSO, 0.02% Tween-20, 25 °C sensor hydration
[2] = test system: ssDNA oligonucleotide (DNA, single strand) GGCATAGTGCGTGGGCG; conditions: PBS (ion concentrations not given), 0.5% DMSO, 0.02% Tween-20, highest hemin 8 μM
[3] = test system: double-stranded DNA (DNA, duplex) GGCATAGTGCGTGGGCG/CGCCCACGCACTATGCC; conditions: PBS (ion concentrations not given), 0.5% DMSO, 0.02% Tween-20, highest hemin 8 μM
[4] = test system: SPB1-G4 (DNA, G4) GGCGAGGGGCGTGGCCGGC; conditions: PBS (ion concentrations not given), 0.5% DMSO, 0.02% Tween-20, highest hemin 8 μM
[5] = test system: hTELO-G4 (DNA, G4) GGTTAGGGTTAGGGTTAGGGTTAGGGTTAG; conditions: PBS (ion concentrations not given), 0.5% DMSO, 0.02% Tween-20, highest hemin 8 μM
[6] = test system: intermolecular hTELO-G4 (DNA, G4) TTAGGGTTAGGGTTAGGG; conditions: PBS (ion concentrations not given), 0.5% DMSO, 0.02% Tween-20, highest hemin 8 μM

KD ([1]; PpIX 1.25-20 μM) [nM] | KD ([1]; hemin 0.5-8 μM) [nM] | binding [2] | binding [3] | binding [4] | binding [5] | binding [6] | Compound
3040 ± 50 |  |  |  |  |  |  | C=CC1=C(C)c2cc3[nH]c(cc4nc(cc5[nH]c(cc1n2)c(C)c5CCC(=O)O)C(CCC(=O)O)=C4C)c(C)c3C=C
 | 1520 ± 40 | no | no | no | no | no | C=CC1=C(C)c2cc3[n-]c(cc4[n-]c(cc5nc(cc1n2)C(C)=C5C=C)c(C)c4CCC(=O)O)c(CCC(=O)O)c3C.[Cl-].[Fe+3]
